{"source": "BindingDB's records for doi:10.1111/cbdd.12174", "about": "(Washington State University At Pullman, 2013)", "target": "T1, Glutamate carboxypeptidase 2 [44-750] (Homo sapiens, UniProt Q04609)", "T1 construct": "44-750", "T1 sequence (Q04609 44-750)": "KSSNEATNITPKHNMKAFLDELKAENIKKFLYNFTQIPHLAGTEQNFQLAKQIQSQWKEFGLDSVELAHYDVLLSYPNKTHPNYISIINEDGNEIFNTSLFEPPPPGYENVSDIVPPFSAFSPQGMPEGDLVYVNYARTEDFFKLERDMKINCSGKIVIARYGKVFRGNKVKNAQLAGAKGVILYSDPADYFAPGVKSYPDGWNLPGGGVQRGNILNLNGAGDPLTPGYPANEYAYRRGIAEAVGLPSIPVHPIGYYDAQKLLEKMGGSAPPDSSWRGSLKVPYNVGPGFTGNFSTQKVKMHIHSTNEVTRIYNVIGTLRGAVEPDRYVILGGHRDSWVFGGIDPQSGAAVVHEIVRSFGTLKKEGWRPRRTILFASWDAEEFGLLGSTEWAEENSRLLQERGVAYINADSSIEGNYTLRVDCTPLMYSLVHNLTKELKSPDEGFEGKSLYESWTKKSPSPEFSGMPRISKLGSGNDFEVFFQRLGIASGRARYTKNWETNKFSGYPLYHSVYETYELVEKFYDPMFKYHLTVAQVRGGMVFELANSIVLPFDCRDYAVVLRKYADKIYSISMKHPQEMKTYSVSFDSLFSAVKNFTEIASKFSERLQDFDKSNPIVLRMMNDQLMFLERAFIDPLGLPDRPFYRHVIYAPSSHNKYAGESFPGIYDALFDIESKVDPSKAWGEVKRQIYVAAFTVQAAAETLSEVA", "assay": "IC50 Assay", "conditions": "pH 7.4; 37 °C", "description": "Inhibitors were made in TRIS buffer (50mM Tris pH 7.4 containing 1% Triton X-100). Working solutions of purified GCPII (50ug/mL) were diluted in TRIS buffer to provide from 15% to 20% conversion of substrate to product in the absence of inhibitor. The incubation mixture (final volume 250μL) contained either 25μL of an inhibitor solution or 25μL TRIS buffer to 175μ TRIS buffer in a test tube, followed by the addition of PABGgG (25μL, […]). The enzymatic reaction was initiated by the addition of 25μL of the GCPII working solution and allowed to proceed for 15min with constant shaking at 37°C. The reaction was quenched by the addition of 25μL methanolic TFA (2% trifluoroacetic acid by volume in methanol) followed by vortexing. The quenched mixture was immediately buffered by the addition of 25μL K2HPO4 (0.1M), vortexed, and centrifuged."}
{"smiles": "O=C(O)CC[C@H](NS(=O)(=O)NC[C@H](NC(=O)c1ccccc1)C(=O)O)C(=O)O", "note": "[(S)-2-((N-((S)-2-benzamido-2-carboxyethyl)sulfamoyl)amino)pentanedioic acid (2b)]", "values": [{"measurement": "IC50", "value": "> 100", "unit": "µM"}]}
